# Reference: patent publication US20110257035A1, “IDENTIFICATION OF SIGNATURE GENES ASSOCIATED WITH HEPATOCELLULAR CARCINOMA” (Bayer Healthcare LLC, priority 2008, published 2011)
# “Also recorded” adds a separate entry of the source.
# Experiments:
# Assay type in all cases: in vivo, human
# plasma c-KIT (s-c-Kit) = experiment: Plasma c-KIT ELISA, baseline vs cycle 3 day 1 (C3D1), HCC patients
# Protocol: Plasma samples were obtained from patients at the time of screening, C3D1, and at the end of treatment visit.
# All six assays were sandwich immunoassays obtained from commercial sources. All assays were performed according to the manufacturers' protocols, as summarized below. All samples were assayed in duplicate and the average value was used for correlative analysis.
# ELISA kits for VEGF (cat #DVE00), s-VEGFR-2 (cat #DVR200), HGF (cat #DHG00), and c-KIT (cat #DSCR00) were obtained from R&D Systems.
# A monoclonal capture antibody specific to the target protein was provided pre-coated in microplate wells. Appropriately diluted samples and standards were pipetted into the wells, allowing capture of the target protein by the immobilized antibodies. Unbound sample was washed away, and a horseradish peroxidase-conjugated antibody also specific for the target protein was added to the wells. Wells were washed again, and a substrate solution was added to each well. The colored reaction product was measured spectrophotometrically and was translated to the quantity (pg/mL or ng/mL) of biomarker protein in the sample by use of a simultaneously generated standard curve.
# plasma HGF = experiment: Plasma HGF ELISA, baseline vs C3D1, HCC patients
# plasma Ras p21 = experiment: Plasma Ras p21 ELISA, baseline vs C3D1, HCC patients; settings: for Ras p21 Δ from BL (e) / mean change in sorafenib arm: C3D1, mean of per-subject absolute change, p vs placebo 0.046
# Protocol: ELISA kits for Ras p21 (cat #06490009) were from Oncogene Science Biomarker Group, part of Siemens Diagnostics, Cambridge, Mass. This assay detects all forms of circulating Ras p21 (H-Ras, N-Ras, and […]).
# After washing, a streptavidin-horseradish peroxidase conjugate was added.
# plasma VEGF = experiment: Plasma VEGF ELISA, baseline vs C3D1, HCC patients
# plasma Ang2 = experiment: Plasma Ang2 level, baseline vs C3D1, HCC patients
# plasma bFGF = experiment: Plasma bFGF level, baseline vs C3D1, HCC patients
# plasma EGF = experiment: Plasma EGF level, baseline vs C3D1, HCC patients
# plasma IGF-2 = experiment: Plasma IGF-2 level, baseline vs C3D1, HCC patients
# [1] = test system: hepatocellular carcinoma (HCC); experiment: Overall survival / time to progression in placebo-controlled HCC trial (SHARP), Cox multivariate analysis
# Excerpt: Overall survival (OS) is defined as the time from randomization to death due to any cause. Overall survival (OS) of subjects alive at the time of analysis will be censored at their last date of follow-up.
# Time to progression (TTP) is defined as the time from randomization to disease progression (radiological only). Patients without tumor progression at the time of analysis will be censored at their last date of tumor evaluation.
# [2] = plasma level, in response to sorafenib treatment
# [3] = sorafenib arm, C3D1, mean of per-subject absolute change, p vs placebo <0.0001
# [4] = sorafenib-treated HCC patients, C3D1 vs baseline
structure (smiles),measurement,setting,value
CNC(=O)c1cc(Oc2ccc(NC(=O)Nc3ccc(Cl)c(C(F)(F)F)c3)cc2)ccn1 [Sorafenib],c-KIT Mean change in sorafenib arm,plasma c-KIT (s-c-Kit); [2],−33.9%
same,c-KIT Δ from BL (e),plasma c-KIT (s-c-Kit); [3],-4.5 ng/mL
same,c-KIT Mean (d),"plasma c-KIT (s-c-Kit); sorafenib arm, C3D1, baseline mean 12.2",8.6 ng/mL
same,Direction of change of plasma c-KIT in response to sorafenib,plasma c-KIT (s-c-Kit); [4],attenuated; also recorded: decrease
same,median absolute change of plasma HGF levels,plasma HGF; intra-patient sorafenib-associated C3D1 change compared to baseline,-294.02 pg/mL
same,HGF Mean change in sorafenib arm,plasma HGF; [2],−7.4%
same,HGF Δ from BL (e),plasma HGF; [3],-285.0 pg/mL
same,HGF Mean (d),"plasma HGF; sorafenib arm, C3D1, baseline mean 2630.0",2220.3 pg/mL
same,Direction of change of plasma HGF in response to sorafenib,plasma HGF; [4],attenuated; also recorded: decrease
same,Ras p21 Δ from BL (e) / mean change in sorafenib arm,plasma Ras p21; sorafenib arm,-259.8 pg/mL
same,Ras p21 Δ from BL (e) / mean change in sorafenib arm,"plasma Ras p21; sorafenib arm, listed as sorafenib",-259.8 pg/mL
same,Ras p21 Mean (d),"plasma Ras p21; sorafenib arm, C3D1, baseline mean 2115.7",1144.7 pg/mL
same,Direction of change of plasma Ras p21 in response to sorafenib,plasma Ras p21; [4],attenuated; also recorded: decrease
same,VEGF Mean change in sorafenib arm,plasma VEGF; [2],+195.7%
same,VEGF Δ from BL (e),"plasma VEGF; sorafenib arm, C3D1, mean of per-subject absolute change, p vs placebo 0.010",66.8 pg/mL
same,VEGF Mean (d),"plasma VEGF; sorafenib arm, C3D1, baseline mean 100.7",170.1 pg/mL
same,Direction of change of plasma VEGF in response to sorafenib,plasma VEGF; [4],elevated; also recorded: increase
same,Ang2 Δ from BL (e),plasma Ang2; [3],-293.0 pg/mL
same,Ang2 Mean (d),"plasma Ang2; sorafenib arm, C3D1, baseline mean 7510.0",6456.4 pg/mL
same,Direction of change of plasma Ang2 in sorafenib,plasma Ang2; [4],attenuated and remain unchanged and does not change significantly and None
same,bFGF Δ from BL (e),"plasma bFGF; sorafenib arm, C3D1, mean of per-subject absolute change, p vs placebo 0.196",2.5 pg/mL
same,Direction of change of plasma bFGF in sorafenib,plasma bFGF; [4],None
same,EGF Δ from BL (e),"plasma EGF; sorafenib arm, C3D1, mean of per-subject absolute change, p vs placebo 0.240",-8.9 pg/mL
same,EGF Mean (d),"plasma EGF; sorafenib arm, C3D1, baseline mean 61.8",53.4 pg/mL
same,Direction of change of plasma EGF in sorafenib,plasma EGF; [4],decreases; also recorded: Mixed
same,IGF-2 Mean change in sorafenib,plasma IGF-2; [2],−11.3%
same,IGF-2 Δ from BL (e),"plasma IGF-2; sorafenib arm, C3D1, mean of per-subject absolute change, p vs placebo 0.145",-129.4 ng/mL
same,IGF-2 Mean (d),"plasma IGF-2; sorafenib arm, C3D1, baseline mean 938.8",847.9 ng/mL
same,Direction of change of plasma IGF-2 in sorafenib,plasma IGF-2; [4],decreases
same,time to progression and/or overall survival compared to placebo treated subjects,[1]; HCC patients,increases
same,Treatment HR for OS,"[1]; multivariate analysis of all patients, sorafenib vs placebo, P-value 0.043",0.779
